Laboratory results published in patent US20230172921A1, “LERIGLITAZONE FOR TREATING LUNG INFLAMMATION AND INTERSTITIAL LUNG DISEASE” (Minoryx Therapeutics S.L., priority 2020, published 2023).
Where “and” joins values, the source holds several entries; their conditions need not be identical. Identical values can stand only once. Counter-ions that a name gives are not always drawn.

Columns and labels:
[1] = Lung/blood distribution ratio in rat; type: in vivo; conditions: lung and blood
[2] = test system: Macrophages exposed to SARS-CoV-2; test: Cytokine production in macrophages in the presence of SARS-CoV-2 (Luminex); type: cell-based; conditions: macrophages exposed to SARS-CoV-2, supernatant 24 h post-infection
[3] = test system: LPS induced acute lung injury (ALI) model; test: LPS induced acute lung injury model in mouse; type: in vivo; conditions: for CD45+ % Decrease vs vehicle / CD45+ Mean / IL-6 % Decrease vs vehicle / IL-6 Mean / IL-12p40 % Decrease vs vehicle / IL-12p40 Mean / IP-10 % Decrease vs vehicle / IP-10 Mean / MIG % Decrease vs vehicle / MIG Mean / Neutrophils % Decrease vs vehicle / Neutrophils Mean / RANTES % Decrease vs vehicle / RANTES Mean / T cells % Decrease vs vehicle / T cells Mean / TNF % Decrease vs vehicle / TNF Mean / Total Protein in BALF % Decrease vs vehicle / Total Protein in BALF Mean: BALF Day 3; for decrease in neutrophil recruitment in the alveoli / decrease in neutrophil recruitment in the interstitium / reduction in mononuclear cell infiltration in the perivascular/peribronchiolar space / reduction of septal thickening in the alveoli: lung H&E histopathology score; for decrease in neutrophil recruitment in the alveoli / decrease in neutrophil recruitment in the interstitium / reduction in mononuclear cell infiltration in the perivascular/peribronchiolar space: FIG. 21; for reduction of septal thickening in the alveoli: FIG. 22
Procedure: Table 2 summarizes the groups tested in the LPS induced acute lung injury (ALI) model study in mice. [table] Briefly, C57Bl/6 7-8 week old mice were exposed to lipopolysaccharide (LPS) oral aspiration (5 mg/Kg). The animals were treated orally with either vehicle, M3 (50 mg/Kg, or MIN-102 at different doses 25 and 50 mg/Kg) bid from Day −1 to Day 2, 6-8 h apart and QD on Day 3 1 h before euthanasia. On Day 3 protein content, cytokine assessment and leukocyte count by FACS analysis were performed in the bronchoalveolar lavage fluid (BALF). The results are shown in FIGS. 11-20, and Tables 3 and 4. The lungs were collected, embedded and processed for H&E histology.

[4] = Unbound fraction in human plasma; type: in vitro ADME
[5] = maximal over doses 25 and 50 mg/kg, BALF

CC(O)c1ccc(CCOc2ccc(CC3SC(=O)NC3=O)cc2)nc1 (racemic) [MIN-102, 5-[[4-[2-[5-(1-hydroxyethyl)pyridin-2-yl]ethoxy]phenyl]methyl]-1,3-thiazolidine-2,4-dione hydrochloride]
Kp [1]: 0.83 | effect on IL2 secretion [2]: No effect | effect on IL7 secretion [2]: No effect | reduction of MIP1-α secretion [2]: 90% | CD45+ % Decrease vs vehicle ([3]; 25 mg/kg PO BID): 52.36% | CD45+ Mean ([3]; 25 mg/kg PO BID): 462941 cells/ml BALF | IL-6 % Decrease vs vehicle ([3]; 25 mg/kg PO BID): 76.17% | IL-6 Mean ([3]; 25 mg/kg PO BID): 116.2 pg/mL | IL-12p40 % Decrease vs vehicle ([3]; 25 mg/kg PO BID): 55.14% | IL-12p40 Mean ([3]; 25 mg/kg PO BID): 15.48 pg/mL | IP-10 % Decrease vs vehicle ([3]; 25 mg/kg PO BID): 47.55% | IP-10 Mean ([3]; 25 mg/kg PO BID): 627.6 pg/mL | MIG % Decrease vs vehicle ([3]; 25 mg/kg PO BID): 50.52% | MIG Mean ([3]; 25 mg/kg PO BID): 1369 pg/mL | Neutrophils % Decrease vs vehicle ([3]; 25 mg/kg PO BID): 56.41% | Neutrophils Mean ([3]; 25 mg/kg PO BID): 280504 cells/ml BALF | RANTES % Decrease vs vehicle ([3]; 25 mg/kg PO BID): 61.57% | RANTES Mean ([3]; 25 mg/kg PO BID): 21.68 pg/mL | T cells % Decrease vs vehicle ([3]; 25 mg/kg PO BID): 43.43% | T cells Mean ([3]; 25 mg/kg PO BID): 20898 cells/ml BALF | TNF % Decrease vs vehicle ([3]; 25 mg/kg PO BID): 59.19% | TNF Mean ([3]; 25 mg/kg PO BID): 12.85 pg/mL | Total Protein in BALF % Decrease vs vehicle ([3]; 25 mg/kg PO BID): 46.00% | Total Protein in BALF Mean ([3]; 25 mg/kg PO BID): 245.3 µg/mL | CD45+ % Decrease vs vehicle ([3]; 50 mg/kg PO BID): 49.83% | CD45+ Mean ([3]; 50 mg/kg PO BID): 487506 cells/ml BALF | IL-6 % Decrease vs vehicle ([3]; 50 mg/kg PO BID): 87.13% | IL-6 Mean ([3]; 50 mg/kg PO BID): 62.78 pg/mL | IL-12p40 % Decrease vs vehicle ([3]; 50 mg/kg PO BID): 71.41% | IL-12p40 Mean ([3]; 50 mg/kg PO BID): 9.868 pg/mL | IP-10 % Decrease vs vehicle ([3]; 50 mg/kg PO BID): 55.42% | IP-10 Mean ([3]; 50 mg/kg PO BID): 731.5 pg/mL | MIG % Decrease vs vehicle ([3]; 50 mg/kg PO BID): 73.18% | MIG Mean ([3]; 50 mg/kg PO BID): 741.7 pg/mL | Neutrophils % Decrease vs vehicle ([3]; 50 mg/kg PO BID): 57.85% | Neutrophils Mean ([3]; 50 mg/kg PO BID): 271223 cells/ml BALF | RANTES % Decrease vs vehicle ([3]; 50 mg/kg PO BID): 79.24% | RANTES Mean ([3]; 50 mg/kg PO BID): 11.71 pg/mL | T cells % Decrease vs vehicle ([3]; 50 mg/kg PO BID): 42.49% | T cells Mean ([3]; 50 mg/kg PO BID): 21245 cells/ml BALF | TNF % Decrease vs vehicle ([3]; 50 mg/kg PO BID): 68.26% | TNF Mean ([3]; 50 mg/kg PO BID): 10 pg/mL | Total Protein in BALF % Decrease vs vehicle ([3]; 50 mg/kg PO BID): 49.50% | Total Protein in BALF Mean ([3]; 50 mg/kg PO BID): 229.4 µg/mL | decrease of total number of leukocytes (CD45 positive cells) vs vehicle group ([3]; in all doses (25 and 50 mg/kg), BALF): 50% | decrease in neutrophil recruitment in the alveoli [3]: 53% | decrease in neutrophil recruitment in the interstitium [3]: 48% | reduction in mononuclear cell infiltration in the perivascular/peribronchiolar space [3]: 31% | reduction of septal thickening in the alveoli [3]: 43% | T cells, maximal reduction vs vehicle group [3, 5]: around 47% | neutrophils, maximal reduction vs vehicle group [3, 5]: around 58% | Unbound % in Plasma (human) [4]: 3.5%

CC(=O)c1ccc(CCOc2ccc(CC3SC(=O)NC3=O)cc2)nc1 (stereo not shown) [Compound M3, 5-[[4-[2-[5-Acetylpyridin-2-yl]ethoxy]phenyl]methyl]-1,3-thiazolidine-2,4-dione]
CD45+ % Decrease vs vehicle ([3]; 50 mg/kg PO BID): 67% and 67.35% | CD45+ Mean ([3]; 50 mg/kg PO BID): 317269 cells/ml BALF | IL-6 % Decrease vs vehicle ([3]; 50 mg/kg PO BID): 96.86% | IL-6 Mean ([3]; 50 mg/kg PO BID): 15.29 pg/mL | IL-12p40 % Decrease vs vehicle ([3]; 50 mg/kg PO BID): 86.71% | IL-12p40 Mean ([3]; 50 mg/kg PO BID): 4.586 pg/mL | IP-10 % Decrease vs vehicle ([3]; 50 mg/kg PO BID): 79.17% | IP-10 Mean ([3]; 50 mg/kg PO BID): 1045 pg/mL | MIG % Decrease vs vehicle ([3]; 50 mg/kg PO BID): 90.75% | MIG Mean ([3]; 50 mg/kg PO BID): 256.2 pg/mL | Neutrophils % Decrease vs vehicle ([3]; 50 mg/kg PO BID): 72% and 72.06% | Neutrophils Mean ([3]; 50 mg/kg PO BID): 179793 cells/ml BALF | RANTES % Decrease vs vehicle ([3]; 50 mg/kg PO BID): 93.19% | RANTES Mean ([3]; 50 mg/kg PO BID): 3.838 pg/mL | T cells % Decrease vs vehicle ([3]; 50 mg/kg PO BID): 74% and 74.14% | T cells Mean ([3]; 50 mg/kg PO BID): 9554 cells/ml BALF | TNF % Decrease vs vehicle ([3]; 50 mg/kg PO BID): 68.26% | TNF Mean ([3]; 50 mg/kg PO BID): 10 pg/mL | Total Protein in BALF % Decrease vs vehicle ([3]; 50 mg/kg PO BID): 63% and 63.24% | Total Protein in BALF Mean ([3]; 50 mg/kg PO BID): 167 µg/mL | reduction of B cells ([3]; 50 mg/kg, BALF): 52% | decrease in neutrophil recruitment in the alveoli [3]: 64% | decrease in neutrophil recruitment in the interstitium [3]: 62% | reduction in mononuclear cell infiltration in the perivascular/peribronchiolar space [3]: 40% | reduction of septal thickening in the alveoli [3]: 79%

CCc1ccc(CCOc2ccc(CC3SC(=O)NC3=O)cc2)nc1 (stereo not shown) [Pioglitazone, reference compound]
Kp [1]: 0.3 | Unbound % in Plasma (human) [4]: 0.2%
